# Measurements taken from patent publication US9993453B2, “Dosage forms and therapeutic uses L-4-chlorokynurenine” (VISTAGEN THERAPEUTICS, INC., priority 2013, dated 2018).
# Read-outs that look alike come from different tables or passages of the source.
# Experiments:
# [1] = Phase 1b clinical study: plasma pharmacokinetics after single and multiple once-daily oral doses of AV-101; settings: human plasma
# Method: (§1) A Phase 1b, single-site, randomized, double-blind, placebo-controlled, study was conducted involving multiple oral doses of AV-101 in healthy male and female subjects. Subjects were randomized into one of three cohorts (360, 1,080, and 1,440 mg) and received a daily oral dose for 14 consecutive days. […] The safety, pharmacokinetics (PK), tolerability of treatment, and antihyperalgesic effect of AV-101 on capsaicin-induced hyperalgesia were assessed.
# (§2) Blood was collected in 6-mL lithium heparin Vacutainer tubes. Samples were centrifuged, and the plasma was separated from the cells and frozen within 30 minutes after centrifugation. Centrifuged samples were placed on ice until they were placed in the freezer. Plasma samples were stored frozen at approximately −20° C. until their shipment to a contractor for analysis.
# (§3) Baseline samples (0 minutes) were collected before the drug was administered on Day 1 and on Day 14. Samples were then collected at 0.5, 1, 1.5, 2, 4, 6, 8, 12, and 24 hours after dosing on Day land Day 14.
# (§4) Both assays used a plasma sample volume of 50.0 μL.
# [2] = target: glycine B (GlyB) coagonist site on the NMDA-R (Homo sapiens, UniProt Q05586); settings: cited from earlier work
# [3] = after administration; cited from earlier work
# [4] = test system: excitotoxic and ischemic neuronal damage; settings: cited from earlier work
# [5] = human, in vivo, po
# Method: as §1, §2, §3, §4
# [6] = test system: seizures; settings: rats, preclinical studies (Reference 11); cited from earlier work
# [7] = test system: capsaicin-induced hyperalgesia; test: Antihyperalgesic effect on capsaicin-induced hyperalgesia (VAS pain assessments) in Phase 1b study; assay type: in vivo, human
# Method: On Day 1 and Day 14 of the clinical study, two intradermal injections of 250 μg of capsaicin were injected sequentially into the volar aspect of alternate forearms to produce burning pain, secondary hyperalgesia, and a flare. The capsaicin USP (United States Pharmacopeia) was prepared according to the site's standard procedure and dissolved in 20% cyclodextrin at a concentration of 10 mg/mL.
# The first capsaicin injection in one forearm was given 1 hour after oral administration of AV-101 or placebo, and the second capsaicin injection was given in the other forearm 2 hours after the administration of AV-101 or placebo. The neurosensory testing began immediately at each capsaicin injection. The serial pain assessments using a 100-mm visual analog scale (VAS) occurred at preinjection and 0, 5, 10, 15, 30, 45, and 60 minutes after each capsaicin injection. The examiner asked the subject to rate the intensity by using the VAS of the spontaneous pain and elicited pain from the application of a 5.18 von Frey hair, 40° C. probe, and gentle stroking with a 1-inch foam brush. The VAS consisted of a 100-mm line with “no pain” written at the 0-mm end and the “worst imaginable pain” written at the 100-mm end. The distance in millimeters provided the pain measurement.
# At least eight determinations of the hyperalgesic area borders were made using the same assessments and starting at different angles. Additionally, subjects were asked to rate the pain intensity of a 1-minute 45° C. heat stimulus (brief thermal stimulation) applied to the anterior thigh at 4.5 hours (±5 minutes) after study drug administration, then every 30 minutes (±5 minutes) through 6 hours after study drug administration. A radiant temperature probe was applied to fix the skin temperature at 36° C. during the pain assessments. Subjects used the VAS for all pain assessments.
# All study assessment time points were anchored to Time 0, the time of study drug administration. For the capsaicin injection at 1 hour after dosing, the assessment interval (i.e., time after dosing of the study drug) was 60 to 120 minutes, during which time assessments occurred at approximately 60, 65, 70, and 75 minutes and then every 15 minutes through the 120-minute time point (i.e., 0, 5, 10, 15, 30, 45, and 60 minutes after capsaicin injection). The second injection of capsaicin was administered approximately 2 hours after dosing of the clinical trial material (CTM), and the assessment interval (i.e., time after dosing of the CTM) was 120 to 180 minutes. The serial pain assessments followed the same schedule, as described after the first capsaicin injection.
# The primary efficacy endpoint was the analgesic response to spontaneous pain at each dose level of AV-101 120 to 180 minutes after dosing on Day 14.
# [8] = test system: activated astrocytes; settings: within activated astrocytes (Reference 5); cited from earlier work
# [9] = Reported feelings of well-being (anti-depressive activity) in the clinical study; assay type: in vivo, human; settings: zero subjects in the placebo group
# Description: In the clinical study described in this application, 5 out of 26 subjects (as contrasted with zero subjects in the placebo group) affirmatively reported feelings of well being. This is consistent with reports that the glutamatergic system contributes to the pathophysiology of depression and that stress can induce changes in NMDA receptors. See, for example, Calabrese et al. “Stress-Induced Changes of Hippocampal NMDA Receptors: Modulation by Duloxetine Treatment,” PLoS ONE 2012, 7(5): e37916. doi:10.1371/journal.pone.0037916.
# [10] = test system: dopaminergic neurons; settings: brains of rats (Reference 7); cited from earlier work
# [11] = test system: peripheral tissue inflammation and nerve injury; test: Animal models of peripheral tissue inflammation and nerve injury; assay type: in vivo
# [12] = Safety and tolerability in humans (clinical study); assay type: in vivo, human; settings: certain doses (360, 1,080, 1,440 mg daily oral)
# Method: The compound is an antihyperalgesic.
# “Without significant adverse effect” means that substantially all patients to whom L-4-chlorokynurenine is administered will have no more than a “mild” adverse event as defined by the U.S. Food and Drug Administration (FDA). The FDA defines a “mild adverse event” as an event that is easily tolerated by the subject, causing minimal discomfort and not interfering with everyday activities. In contrast, a “moderate adverse event” is an event that is sufficiently discomforting causing it to interfere with normal everyday activities.
# [13] = Day 1, after 1,440-mg oral dose of L-4-chlorokynurenine
smiles,measurement,setting,value
O=C(O)c1cc(O)c2ccc(Cl)cc2n1 [7-chlorokynurenic acid],Mean 7-chlorokynurenic acid Cmax,"[1]; Day 1, after 360-mg oral dose of L-4-chlorokynurenine",42.7 ng/mL
same,Mean 7-chlorokynurenic acid AUCO-t,[1]; [13],985 ng·b/mL
same,Mean 7-chlorokynurenic acid Cmax,[1]; [13],314 ng/mL
same,Mean 7-chlorokynurenic acid AUCO-t,"[1]; Day 1, after lowest dose (360 mg) of L-4-chlorokynurenine",156 ng·h/mL
same,Dose linearity of mean 7-chlorokynurenic acid Cmax and AUCO-t,"[1]; after oral L-4-chlorokynurenine 360 to 1,440 mg",approximately dose linear
same,Mean Cmax and AUCO-t of 7-chlorokynurenic acid on Day 14 compared with Day 1,[1]; once-daily oral L-4-chlorokynurenine for 14 days,slightly lower on Day 14 than those on Day 1
same,GlyB antagonist potency and specificity,[2],One of the most potent and specific GlyB antagonists
same,Crossing of the blood-brain barrier / access to the CNS,[3],does not cross the blood-brain barrier
same,Prevention of excitotoxic and ischemic neuronal damage,[4],prevent excitotoxic and ischemic neuronal damage
Nc1cc(Cl)ccc1C(=O)CC(N)C(=O)O [L-4-chlorokynurenine],Dose linearity of mean L-4-chlorokynurenine Cmax and AUCO-∞,[5],"approximately dose linear, although not proportional"
same,Mean Cmax and AUCO-t of L-4-chlorokynurenine on Day 14 compared with Day 1,[5],slightly lower on Day 14 than those on Day 1
same,Mean L-4-chlorokynurenine AUCO-t,[5],196000 ng·h/mL
same,Mean L-4-chlorokynurenine Tmax,[5],~2 h
same,Mean t½ of L-4-chlorokynurenine,[5],1.64 to 1.82 h
same,Mean L-4-chlorokynurenine AUCO-t,[5]; 360 mg,64000 ng·h/mL
same,Anti-seizure activity,[6],anti-seizure activity
same,"Least squares means of the AUPC for allodynia pain, mechanical hyperalgesia pain and heat hyperalgesia pain","[7]; 1,080 mg (Cohort 2) versus placebo",consistent decrease
same,"MAXPAIN, Spontaneous Pain","[7]; 1080 mg oral daily, n=13, 100-mm VAS, placebo 77.00",75.08
same,"MAXPAIN, Allodynia Pain (foam brush)","[7]; 1080 mg oral daily, n=13, 100-mm VAS, placebo 79.50",70.92
same,"MAXPAIN, Mechanical Allogesia","[7]; 1080 mg oral daily, n=13, 100-mm VAS, placebo 79.75",66.23
same,"MAXPAIN, Heat Allogesia","[7]; 1080 mg oral daily, n=13, 100-mm VAS, placebo 84.75",78.85
same,"Secondary efficacy endpoints (AUPC for spontaneous pain, elicited pain from von Frey hair and 40° C. probe)","[7]; 120 to 180 minutes Day 1, 60 to 180 minutes Days 1 and 14, versus placebo",no significant changes
same,"Area under the pain time curve (AUPC) for spontaneous pain, primary efficacy endpoint","[7]; each dose level, 120 to 180 minutes after dosing on Day 14, versus placebo",no significant change
same,"Subject-reported relief from neuropathic pain, specifically hyperalgesia pain","[7]; humans, at the clinical dosages",subjects reported relief from neuropathic pain
same,Conversion to 7-chlorokynurenic acid,[8],efficiently converted
same,Subjects affirmatively reporting feelings of well being,[9],5 out of 26
same,Crossing of the blood-brain barrier / access to the CNS,[3],readily gains access to the central nervous system
same,Firing rate and burst firing activity of dopaminergic neurons,[10],increase the firing rate and burst firing activity
same,Tolerability in animal models,[11]; at doses that produce antihyperalgesic effects,well tolerated
same,Antihyperalgesic actions in animal models,[11]; three animal models of peripheral tissue inflammation and nerve injury,potent antihyperalgesic actions
same,Safety and tolerability in humans,[12],safe and tolerable in humans without substantial side effects or any significant adverse effects
